# Patent publication US11884676B2, “Substituted pyrimido[1,2-b]pyridazines as positive allosteric modulators of the muscarinic acetylcholine receptor M4” (Vanderbilt University, priority 2020, dated 2024)
# Target: T1, Human M4 (Homo sapiens, UniProt P08173)
# T1 construct: expressed in transfected cells
# T1 sequence (P08173 1-479): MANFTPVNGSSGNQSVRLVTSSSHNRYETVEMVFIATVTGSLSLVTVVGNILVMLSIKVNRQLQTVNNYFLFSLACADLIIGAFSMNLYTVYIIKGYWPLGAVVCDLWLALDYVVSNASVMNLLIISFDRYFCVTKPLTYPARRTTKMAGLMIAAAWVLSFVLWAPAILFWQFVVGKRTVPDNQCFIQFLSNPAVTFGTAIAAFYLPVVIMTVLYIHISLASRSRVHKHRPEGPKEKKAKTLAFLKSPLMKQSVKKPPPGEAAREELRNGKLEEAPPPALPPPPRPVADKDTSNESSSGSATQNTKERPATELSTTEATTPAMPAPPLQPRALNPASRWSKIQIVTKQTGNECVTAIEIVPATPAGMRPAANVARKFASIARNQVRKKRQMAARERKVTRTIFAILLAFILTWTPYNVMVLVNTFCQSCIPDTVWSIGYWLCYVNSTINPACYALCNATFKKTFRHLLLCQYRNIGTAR
# Test: mAChR M4 cell-based functional assay (calcium flux, PAM mode)
# Set-up: Emax: dose or concentration left out as unconfirmed
# Details: for Emax at 30 µM: CHO-K1, % ACh maximum at 30 μM; for Emax at 30 µM / EC50: hM4-Gqi5 CHO-K1 cells; for EC50: concentration-dependent increase in the EC20 acetylcholine response
# Description: Human and rat M4 cDNAs, along with the chimeric G protein Gqi5, were transfected into Chinese hamster ovary (CHO-K1) cells purchased from the American Type Culture Collection using Lipofectamine2000. hM4-Gqi5 cells were grown in Ham's F-12 medium containing 10% heat-inactivated fetal bovine serum (FBS), 20 mM HEPES, 50 μg/mL G418 sulfate, and 500 μg/mL Hygromycin B. rM4-Gqi5 cells were grown in DMEM containing 10% heat-inactivated FBS, 20 mM HEPES, 400 μg/mL G418 sulfate, and 500 μg/mL Hygromycin B.
# For high throughput measurement of agonist-evoked increases in intracellular calcium, CHO-K1 cells stably expressing muscarinic receptors were plated in growth medium lacking G418 and hygromycin at 15,000 cells/20 μL/well in Greiner 384-well black-walled, tissue culture (TC)-treated, clear-bottom plates (VWR). Cells were incubated overnight at 37° C. and 5% CO2. The next day, cells were washed using an ELX 405 (BioTek) with assay buffer; the final volume was then aspirated to 20 μL. Next, 20 μL of a 2.3 μM stock of Fluo-4/acetoxymethyl ester (Invitrogen, Carlsbad, CA), prepared as a 2.3 mM stock in DMSO and mixed in a 1:1 ratio with 10% (w/v) Pluronic F-127 and diluted in assay buffer, was added to the wells and the cell plates were incubated for 50 min at 37° C. and 5% CO2. Dye was removed by washing with the ELX 405 and the final volume was aspirated to 20 μL. Compound master plates were formatted in an 11 point concentration-response curve (CRC) format (1:3 dilutions) in 100% DMSO with a starting concentration of 10 mM using a BRAVO liquid handler (Agilent). Test compound CRCs were then transferred to daughter plates (240 nL) using the Echo acoustic plate reformatter (Labcyte, Sunnyvale, CA) and then diluted into assay buffer (40 μL) to a 2× stock using a Thermo Fisher Combi (Thermo Fisher Scientific, Waltham, MA).
# Calcium flux was measured using the Functional Drug Screening System (FDSS) 6000 or 7000 (Hamamatsu Corporation, Tokyo, Japan) as an increase in the fluorescent static ratio. Compounds were applied to cells (20 μL, 2×) using the automated system of the FDSS at 2-4 seconds into the protocol and the data were collected at 1 Hz. At 144 seconds, 10 μL of an EC20 concentration of the muscarinic receptor agonist acetylcholine was added (5×), followed by the addition of 12 μL of an EC80 concentration of acetylcholine at the 230 second time point (5×). Agonist activity was analyzed as a concentration-dependent increase in calcium mobilization upon compound addition. Positive allosteric modulator activity was analyzed as a concentration-dependent increase in the EC20 acetylcholine response. Antagonist activity was analyzed as a concentration-dependent decrease in the EC80 acetylcholine response. Concentration-response curves were generated using a four-parameter logistical equation in XLFit curve fitting software (IDBS, Bridgewater, NJ) for Excel (Microsoft, Redmond, WA) or Prism (GraphPad Software, Inc., San Diego, CA).
# Compounds were synthesized as described above. Activity (EC50 and Emax) was determined in the mAChR M4 cell-based functional assay as described above and the data are shown in Table 2. The compound number corresponds to the compound numbers used in Examples 1 to 11 and Tables 1.
smiles,measurement,setting,value
"[2H]C1([2H])Oc2cc(OC3CCN(c4nn5c(=O)ccnc5cc4C)CC3)cc(F)c2OC1([2H])[2H] [Compound 136, 7-(4-((8-fluoro-2,3-dihydrobenzo[b][1,4]dioxin-6-yl-2,2,3,3-d4)oxy)piperidin-1-yl)-8-methyl-4H-pyrimido[1,2-b]pyridazin-4-one]",Emax at 30 µM,,97%
same,EC50,,73 nM
"Cc1cc2nccc(=O)n2nc1N1CC[C@@H](Oc2ccc3c(c2)CCOC3)[C@H](F)C1 [Compound 54, 7-((3R,4R)-3-fluoro-4-(isochroman-6-yloxy)piperidin-1-yl)-8-methyl-4H-pyrimido[1,2-b]pyridazin-4-one]",Emax at 30 µM,,89%
same,EC50,,319 nM
"[2H]C1([2H])Oc2ccc(OC3CCN(c4nn5c(=O)c(C6CC6)cnc5cc4C)CC3)cc2OC1([2H])[2H] [Compound 30, 3-cyclopropyl-7-(4-((2,3-dihydrobenzo[b][1,4]dioxin-6-yl-2,2,3,3-d4)oxy)piperidin-1-yl)-8-methyl-4H-pyrimido[1,2-b]pyridazin-4-one]",Emax at 30 µM,,80%
same,EC50,,73 nM
"[2H]C1([2H])Oc2ccc(O[C@@H]3CCN(c4nn5c(=O)ccnc5c(C)c4C)C[C@H]3F)cc2OC1([2H])[2H] [Compound 128, 7-((3R,4R)-4-((2,3-dihydrobenzo[b][1,4]dioxin-6-yl-2,2,3,3-d4)oxy)-3-fluoropiperidin-1-yl)-8,9-dimethyl-4H-pyrimido[1,2-b]pyridazin-4-one]",Emax at 30 µM,,125%
same,EC50,,53 nM
"Cc1cc(=O)n2nc(N3CC[C@H](Oc4ccc5c(c4)OCCO5)[C@H](F)C3)c(C)cc2n1 [Compound 44, 7-((3R,4S)-4-((2,3-dihydrobenzo[b][1,4]dioxin-6-yl)oxy)-3-fluoropiperidin-1-yl)-2,8-dimethyl-4H-pyrimido[1,2-b]pyridazin-4-one]",Emax at 30 µM,,79%
same,EC50,,224 nM
"Cc1cc2nccc(=O)n2nc1N1CC[C@H](Oc2ccc3c(c2)OCCO3)C[C@H]1C [Compound 108, 7-((2R,4S)-4-((2,3-Dihydrobenzo[b][1,4]dioxin-6-yl)oxy)-2-methylpiperidin-1-yl)-8-methyl-4H-pyrimido[1,2-b]pyridazin-4-one]",Emax at 30 µM,,99%
"[2H]C1(Oc2ccc3c(c2)OC([2H])([2H])C([2H])([2H])O3)CCN(c2nn3c(=O)ccnc3cc2C)CC1 [Compound 39, 7-(4-((2,3-dihydrobenzo[b][1,4]dioxin-6-yl-2,2,3,3-d4)oxy)piperidin-1-yl-4-d)-8-methyl-4H-pyrimido[1,2-b]pyridazin-4-one]",Emax at 30 µM,,111%
same,EC50,,115 nM
"[2H]C1([2H])Oc2ccc(OC3CCN(c4nn5c(=O)ccnc5c(C)c4C4CC4)CC3)cc2OC1([2H])[2H] [Compound 105, 8-cyclopropyl-7-(4-((2,3-dihydrobenzo[b][1,4]dioxin-6-yl-2,2,3,3-d4)oxy)piperidin-1-yl)-9-methyl-4H-pyrimido[1,2-b]pyridazin-4-one]",Emax at 30 µM,,81%
same,EC50,,1700 nM
"Cc1c(N2CCC(Oc3ccc4c(c3)OCCO4)CC2)nn2c(=O)ccnc2c1N1CCC1 [Compound 127, 9-(Azetidin-1-yl)-7-(4-((2,3-dihydrobenzo[b][1,4]dioxin-6-yl)oxy)piperidin-1-yl)-8-methyl-4H-pyrimido[1,2-b]pyridazin-4-one]",Emax,"CHO-K1, read-out: Human M4 Emax (%)*",58%
same,EC50,,1600 nM
"[2H]C1(Oc2ccc3c(c2)OCO3)CCN(c2nn3c(=O)cc(C(F)F)nc3cc2C)CC1 [Compound 66, 7-(4-(benzo[d][1,3]dioxol-5-yloxy)piperidin-1-yl-4-d)-2-(difluoromethyl)-8-methyl-4H-pyrimido[1,2-b]pyridazin-4-one]",Emax at 30 µM,,108%
same,EC50,,17 nM
"[2H]C1([2H])Oc2ccc(OC3CCN(c4nn5c(=O)ccnc5c(COC)c4C)CC3)cc2OC1([2H])[2H] [Compound 19, 7-(4-((2,3-Dihydrobenzo[b][1,4]dioxin-6-yl-2,2,3,3-d4)oxy)piperidin-1-yl)-9-(methoxymethyl)-8-methyl-4H-pyrimido[1,2-b]pyridazin-4-one]",Emax at 30 µM,,75%
same,EC50,,460 nM
"[2H]C1([2H])Oc2ccc(O[C@@H]3CCN(c4nn5c(=O)ccnc5cc4C)C[C@@H]3F)cc2OC1([2H])[2H] [Compound 111, 7-((3S,4R)-4-((2,3-dihydrobenzo[b][1,4]dioxin-6-yl-2,2,3,3-d4)oxy)-3-fluoropiperidin-1-yl)-8-methyl-4H-pyrimido[1,2-b]pyridazin-4-one]",Emax at 30 µM,,106%
same,EC50,,67 nM
"Cc1c(N2CCC(Oc3ccc(C(F)(F)F)cc3)CC2)nn2c(=O)cc(C(F)F)nc2c1C [Compound 81, 2-(difluoromethyl)-8,9-dimethyl-7-(4-(4-(trifluoromethyl)phenoxy)piperidin-1-yl)-4H-pyrimido[1,2-b]pyridazin-4-one]",Emax at 30 µM,,73%
same,EC50,,2300 nM
"[2H]C1([2H])Oc2ccc(OC3CCN(c4nn5c(=O)cc(C(F)F)nc5c(C)c4C)CC3)cc2OC1([2H])[2H] [Compound 9, 2-(Difluoromethyl)-7-(4-((2,3-dihydrobenzo[b][1,4]dioxin-6-yl-2,2,3,3-d4)oxy)piperidin-1-yl)-8,9-dimethyl-4H-pyrimido[1,2-b]pyridazin-4-one]",Emax at 30 µM,,96%
same,EC50,,28 nM
"[2H]C1(Oc2ccc3c(c2)OCCO3)CCN(c2nn3c(=O)cc(C(F)(F)F)nc3cc2C)CC1 [Compound 49, 7-(4-((2,3-dihydrobenzo[b][1,4]dioxin-6-yl)oxy)piperidin-1-yl-4-d)-8-methyl-2-(trifluoromethyl)-4H-pyrimido[1,2-b]pyridazin-4-one]",Emax at 30 µM,,93%
same,EC50,,10 nM
"Cc1cc(=O)n2nc(N3CCC(Oc4ccc5c(c4)CCNC5=O)CC3)c(C)cc2n1 [Compound 82, 2,8-dimethyl-7-(4-((1-oxo-1,2,3,4-tetrahydroisoquinolin-6-yl)oxy)piperidin-1-yl)-4H-pyrimido[1,2-b]pyridazin-4-one]",Emax at 30 µM,,74%
same,EC50,,3340 nM
"Cc1c(N2CCC(Oc3ccc(F)cc3)CC2)nn2c(=O)cc(C(F)F)nc2c1C [Compound 84, 2-(difluoromethyl)-7-(4-(4-fluorophenoxy)piperidin-1-yl)-8,9-dimethyl-4H-pyrimido[1,2-b]pyridazin-4-one]",Emax at 30 µM,,86%
same,EC50,,141 nM
"[2H]C1(Oc2ccc3c(c2)OC([2H])([2H])C([2H])([2H])O3)CCN(c2nn3c(=O)cc(CC)nc3c(C)c2C)CC1 [Compound 98, 7-(4-((2,3-dihydrobenzo[b][1,4]dioxin-6-yl-2,2,3,3-d4)oxy)piperidin-1-yl-4-d)-2-ethyl-8,9-dimethyl-4H-pyrimido[1,2-b]pyridazin-4-one]",Emax at 30 µM,,90%
same,EC50,,64 nM
"Cc1ccc(OC2CCN(c3nn4c(=O)ccnc4cc3C)CC2)cn1 [Compound 24, 8-methyl-7-(4-((6-methylpyridin-3-yl)oxy)piperidin-1-yl)-4H-pyrimido[1,2-b]pyridazin-4-one]",Emax at 30 µM,,73%
same,EC50,,782 nM
"Cc1c(N2CCC(Oc3ccc4c(c3)OCCO4)CC2)nn2c(=O)cc(C(C)C)nc2c1C [Compound 12, 7-(4-((2,3-Dihydrobenzo[b][1,4]dioxin-6-yl)oxy)piperidin-1-yl)-2-isopropyl-8,9-dimethyl-4H-pyrimido[1,2-b]pyridazin-4-one]",Emax at 30 µM,,103%
same,EC50,,59 nM
